PMC5915086 (Oncotarget, 2018)
“Also recorded” adds a separate entry of the source.

Experiments:
PRMT7 = molecular target: T1, PRMT7 (Homo sapiens, UniProt Q9NVM4); experiment: PRMT7 methyltransferase scintillation proximity assay; type: biochemical
T1 construct: 1–692; made in house
Description: (§4) In the scintillation proximity assay (SPA), specific amounts of enzyme and biotinylated peptide substrate were mixed with the compound and the reaction was initiated by adding SAM. IC50 values were measured at the apparent Km concentrations of the substrate and SAM. The reaction was quenched by adding an equal volume of 7.5 M guanidine hydrochloride, and the reaction product was measured by SPA using FlashPlate Plus and TopCount NXT HTS plate reader (both from Perkin Elmer Life Sciences).
(§5) The selectivity assay was performed as previously described [31]. The effect of test compounds on the methyltransferase activities of Euchromatic histone-lysine N-methyltransferase 2 (G9a), G9a-like protein (GLP), Suppressor of variegation 3-9 homolog (SUV39H)1, SUV39H2, SUV420H1, SUV420H2, SET domain (SETD)2, SETD8, SETD bifurcated 1 (SETDB1), SETD7, Mixed-lineage leukemia (MLL)1 trimeric complex, MLL3 pentameric complex, Enhancer of zeste homolog (EZH)2 trimeric complex, PRMT1, PRMT3, PRMT4, PRMT5/Methylosome protein (MEP)50 complex, PRMT6, PRMT7, PRMT8, PRMT9, PR domain zinc finger protein (PRDM)9, SET and MYND domain-containing (SMYD)2, SMYD3, and DNA methyltransferase (DNMT)1 was assessed by monitoring the incorporation of a tritium-labeled methyl group into substrates with the scintillation proximity assay [32]. […]

[1] = test system: dimethylation of MED12 (PRMT4 substrate); experiment: MED12 dimethylation in HEK293 cells, western blotting; type: cell-based, human; conditions: 3 days
Description: (§6) Graphs represent nonlinear curve fits of dimethyl-BAF155 and dimethyl-MED12 signal intensities normalized to total BAF155 or MED12, respectively. Data represent mean ± SEM of two independent experiments prepared in triplicate.
(§7) After incubation for 3 min at room temperature, sodium dodecyl sulfate (SDS) was added to a final concentration of 1%. […] Blots were blocked for 1 h in blocking buffer composed of 5% milk and 0.1% Tween 20 in phosphate-buffered saline (PBS) and then incubated overnight at 4°C in blocking buffer containing primary antibodies against MED12 (1:1000) (Abnova, Taipei, Taiwan; H00009968-A01), MED12 with asymmetrically dimethylated arginine (1:1000; gift from Dr. Mark Bedford and Cell Signaling Technology, Danvers, MA, USA), BAF155 (1:500) (Santa Cruz Biotechnology, Santa Cruz, CA, USA; sc32763), or R1064-dimethylated BAF155 (1:2000) (Millipore; ABE1339). […] The signal was detected on an Odyssey scanner (LI-COR Biosciences) at 800 and 700 nm.

PRMT4 [2] = molecular target: T2, PRMT4 (Homo sapiens, UniProt Q86X55); experiment: Differential static light scattering (DSLS) binding; conditions: at 80 μM
T2 sequence (Q86X55 1-608): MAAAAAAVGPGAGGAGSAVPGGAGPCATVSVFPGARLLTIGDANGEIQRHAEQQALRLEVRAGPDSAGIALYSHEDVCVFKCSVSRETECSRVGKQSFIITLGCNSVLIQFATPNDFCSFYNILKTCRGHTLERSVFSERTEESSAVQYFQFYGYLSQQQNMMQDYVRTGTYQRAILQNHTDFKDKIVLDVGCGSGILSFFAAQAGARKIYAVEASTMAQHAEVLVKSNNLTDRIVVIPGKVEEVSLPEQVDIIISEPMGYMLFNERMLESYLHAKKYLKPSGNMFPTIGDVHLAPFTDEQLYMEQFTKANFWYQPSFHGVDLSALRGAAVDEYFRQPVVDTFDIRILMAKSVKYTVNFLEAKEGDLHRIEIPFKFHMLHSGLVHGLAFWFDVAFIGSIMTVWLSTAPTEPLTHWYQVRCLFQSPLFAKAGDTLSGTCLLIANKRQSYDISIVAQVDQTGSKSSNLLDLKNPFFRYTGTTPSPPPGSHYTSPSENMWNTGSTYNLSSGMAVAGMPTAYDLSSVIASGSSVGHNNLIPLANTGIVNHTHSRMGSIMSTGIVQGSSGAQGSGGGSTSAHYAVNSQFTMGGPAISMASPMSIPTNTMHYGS
Description: DSLS was performed as previously described [34] using 100 mM HEPES (pH 7.5), 150 mM NaCl, 3% DMSO, and 0.4 mg ml^−1 (6 μM) protein in a 10-μl reaction volume.

[3] = test system: BAF155 dimethylation in KMS-27 cells; experiment: BAF155 dimethylation in MM cells, western blotting; type: cell-based, human
Description: (§8) The lysates were separated by SDS-polyacrylamide gel electrophoresis and transferred to a nitrocellulose membrane using an iBlot Transfer Stack and iBlot Gel Transfer Device (Thermo Fisher Scientific, Waltham, MA, USA). […] The membrane was incubated with ImmunoStar LD (Wako Pure Chemical Industries, Osaka, Japan), and signals were detected with an ImageQuant LAS-3000 imaging system (Fujifilm, Tokyo, Japan).

PRMT8 = molecular target: T3, PRMT8 (Homo sapiens, UniProt Q9NR22); experiment: PRMT8 methyltransferase scintillation proximity assay; type: biochemical
T3 construct: 1–394; made in house
T3 sequence (Q9NR22 whole entry): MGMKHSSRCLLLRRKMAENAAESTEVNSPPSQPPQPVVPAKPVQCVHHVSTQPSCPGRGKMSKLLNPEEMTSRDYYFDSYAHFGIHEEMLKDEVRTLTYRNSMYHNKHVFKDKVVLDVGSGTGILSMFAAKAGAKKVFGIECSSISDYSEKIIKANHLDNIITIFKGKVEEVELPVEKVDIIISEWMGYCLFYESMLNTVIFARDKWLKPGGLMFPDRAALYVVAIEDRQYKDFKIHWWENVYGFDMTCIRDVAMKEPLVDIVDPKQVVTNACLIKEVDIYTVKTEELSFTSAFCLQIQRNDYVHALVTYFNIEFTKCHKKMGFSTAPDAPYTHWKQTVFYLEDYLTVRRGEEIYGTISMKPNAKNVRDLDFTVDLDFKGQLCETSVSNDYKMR
Description: as §4, §5

[4] = test system: dimethylation of BAF155 (PRMT4 substrate); experiment: BAF155 dimethylation in HEK293 cells, western blotting; type: cell-based, human; conditions: 3 days
Description: as §6, §7

PRMT9 = molecular target: T4, PRMT9 (Homo sapiens, UniProt Q6P2P2); experiment: PRMT9 methyltransferase scintillation proximity assay; type: biochemical
T4 construct: 1–845; made in house
T4 sequence (Q6P2P2 whole entry): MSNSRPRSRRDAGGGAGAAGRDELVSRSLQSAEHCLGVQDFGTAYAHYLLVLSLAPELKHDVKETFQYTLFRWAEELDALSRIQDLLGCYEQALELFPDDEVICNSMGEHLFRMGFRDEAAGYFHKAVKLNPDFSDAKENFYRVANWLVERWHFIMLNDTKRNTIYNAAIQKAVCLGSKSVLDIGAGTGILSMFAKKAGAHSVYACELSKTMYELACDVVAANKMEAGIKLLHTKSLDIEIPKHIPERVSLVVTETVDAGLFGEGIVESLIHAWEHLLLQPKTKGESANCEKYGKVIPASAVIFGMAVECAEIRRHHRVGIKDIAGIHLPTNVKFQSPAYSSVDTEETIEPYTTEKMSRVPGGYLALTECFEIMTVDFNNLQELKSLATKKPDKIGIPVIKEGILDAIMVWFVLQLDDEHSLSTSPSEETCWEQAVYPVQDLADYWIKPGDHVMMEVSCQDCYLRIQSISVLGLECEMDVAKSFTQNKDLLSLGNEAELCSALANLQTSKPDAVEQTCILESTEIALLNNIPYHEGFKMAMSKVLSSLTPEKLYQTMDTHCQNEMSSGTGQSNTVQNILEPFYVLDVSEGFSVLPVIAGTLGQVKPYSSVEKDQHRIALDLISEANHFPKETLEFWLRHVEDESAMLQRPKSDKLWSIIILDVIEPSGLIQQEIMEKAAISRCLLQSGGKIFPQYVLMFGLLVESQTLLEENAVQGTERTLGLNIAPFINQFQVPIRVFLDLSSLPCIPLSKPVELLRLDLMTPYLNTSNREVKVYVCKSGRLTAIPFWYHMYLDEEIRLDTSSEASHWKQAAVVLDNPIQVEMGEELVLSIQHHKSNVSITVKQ
Description: as §4

PRMT6 = molecular target: T5, PRMT6 (Homo sapiens, UniProt Q96LA8); experiment: PRMT6 methyltransferase scintillation proximity assay; type: biochemical
T5 construct: 1–375; made in house
T5 sequence (Q96LA8 whole entry): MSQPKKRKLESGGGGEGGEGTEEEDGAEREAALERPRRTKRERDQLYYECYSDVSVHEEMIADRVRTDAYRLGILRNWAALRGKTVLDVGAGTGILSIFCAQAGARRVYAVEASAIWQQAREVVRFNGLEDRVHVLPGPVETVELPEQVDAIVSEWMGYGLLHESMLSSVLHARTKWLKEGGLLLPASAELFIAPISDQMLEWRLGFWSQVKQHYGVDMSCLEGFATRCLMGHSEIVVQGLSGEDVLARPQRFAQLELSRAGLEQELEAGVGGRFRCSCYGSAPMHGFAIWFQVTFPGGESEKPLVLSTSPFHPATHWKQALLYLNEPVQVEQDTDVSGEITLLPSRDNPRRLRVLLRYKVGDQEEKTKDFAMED
Description: as §4, §5

[5] = test system: panel of 89 (69 solid and 20 hematologic) cancer cell lines; experiment: Cell panel viability, CellTiter-Glo, 3 days; type: cell-based, human; conditions: 3 μM
Description: In addition, to further validate the role of PRMT4 in MM cell growth, we performed PRMT4 knockdown in NCI-H929 cells and observed PRMT4 knockdown-induced growth inhibition (Supplementary Figure 5). Thus, pharmacological inhibition of PRMT4 by small molecules may be a therapeutic option for some MM treatment.
(§1) Red dots indicate MM cell lines. […] Data are presented as mean ± standard deviation (n = 3). IC50 values were calculated by nonlinear regression analysis of % inhibition. […] ATP concentration was calculated based on chemiluminescence values relative to the 0 nM value (control) in each cell line. PRMT4 mRNA expression levels in MM cells were determined with the Ion Ampliseq transcriptome assay and were normalized to that of glyceraldehyde 3-phosphate dehydrogenase (GAPDH) in each cell line.
(§2) Chemiluminescence was measured with a microplate reader. […] K562 cells were cultured in RPMI 10% FBS.

[6] = test system: BAF155 dimethylation in U266B1 cells; experiment: BAF155 dimethylation in MM cells, western blotting; type: cell-based, human
Description: as §8

PRMT3 = molecular target: T6, PRMT3 (Homo sapiens, UniProt O60678); experiment: PRMT3 methyltransferase scintillation proximity assay; type: biochemical
T6 construct: 106–426 (within the); made in house
T6 sequence (O60678 211-531 limits assumed): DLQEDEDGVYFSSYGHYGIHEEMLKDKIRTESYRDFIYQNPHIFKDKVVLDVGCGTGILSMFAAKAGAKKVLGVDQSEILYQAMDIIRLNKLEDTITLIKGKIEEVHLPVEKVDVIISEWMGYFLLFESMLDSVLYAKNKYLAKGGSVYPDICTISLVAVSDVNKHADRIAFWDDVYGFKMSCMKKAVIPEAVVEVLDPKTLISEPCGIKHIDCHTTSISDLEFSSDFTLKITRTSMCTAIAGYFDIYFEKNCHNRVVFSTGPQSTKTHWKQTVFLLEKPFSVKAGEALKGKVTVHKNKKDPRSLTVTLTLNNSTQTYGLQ
Description: as §4, §5

[7] = test system: BAF155 dimethylation in NCI-H929 cells; experiment: BAF155 dimethylation in MM cells, western blotting; type: cell-based, human
Description: as §8

[8] = molecular target: T7, PRMT5/Methylosome protein (MEP)50 complex (Homo sapiens, UniProt O14744); experiment: PRMT5 methyltransferase scintillation proximity assay; type: biochemical
T7 construct: 1–637 (PRMT5); made in house
T7 sequence (O14744 whole entry): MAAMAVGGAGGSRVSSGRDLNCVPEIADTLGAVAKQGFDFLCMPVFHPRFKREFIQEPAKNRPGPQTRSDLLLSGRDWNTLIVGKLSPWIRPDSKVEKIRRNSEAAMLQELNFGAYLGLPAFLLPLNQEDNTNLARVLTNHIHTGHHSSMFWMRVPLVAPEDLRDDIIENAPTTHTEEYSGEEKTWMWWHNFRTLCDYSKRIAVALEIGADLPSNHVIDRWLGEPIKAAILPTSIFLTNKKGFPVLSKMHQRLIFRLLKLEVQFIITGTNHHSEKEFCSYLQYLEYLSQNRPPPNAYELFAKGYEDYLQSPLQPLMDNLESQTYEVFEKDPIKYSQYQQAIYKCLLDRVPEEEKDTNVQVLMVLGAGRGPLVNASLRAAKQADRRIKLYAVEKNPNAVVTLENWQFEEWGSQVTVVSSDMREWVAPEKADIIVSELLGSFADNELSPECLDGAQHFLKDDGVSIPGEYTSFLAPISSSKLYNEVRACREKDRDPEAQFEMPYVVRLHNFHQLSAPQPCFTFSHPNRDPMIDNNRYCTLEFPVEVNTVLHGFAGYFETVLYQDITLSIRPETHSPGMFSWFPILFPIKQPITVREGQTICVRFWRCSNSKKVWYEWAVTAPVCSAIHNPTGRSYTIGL
T7 sequence (Q9BQA1 whole entry partner): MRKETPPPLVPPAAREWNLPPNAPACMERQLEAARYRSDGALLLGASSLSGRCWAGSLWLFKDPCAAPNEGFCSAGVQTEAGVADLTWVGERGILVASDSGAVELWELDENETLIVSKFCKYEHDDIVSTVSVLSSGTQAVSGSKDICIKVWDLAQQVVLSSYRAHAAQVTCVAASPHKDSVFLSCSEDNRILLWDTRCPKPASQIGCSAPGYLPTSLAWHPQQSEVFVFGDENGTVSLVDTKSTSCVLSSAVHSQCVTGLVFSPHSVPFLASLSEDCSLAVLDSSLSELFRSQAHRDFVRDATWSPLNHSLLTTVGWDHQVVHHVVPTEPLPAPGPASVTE
Description: as §4, §5

PRMT4 [9] = molecular target: T2, PRMT4; experiment: Substrate competition assay (mechanism of action); type: biochemical; design: 1–608; made in house; conditions: versus SAM and substrate peptide
Description: The substrate competition assays were performed by measuring IC50 values at various concentrations of one substrate (e.g., peptide) and at saturating concentrations of the other (e.g., SAM) and vice versa, as previously described.

RPMI8226 cells = experiment: MM cell growth, CellTiter-Glo, 6 days; type: cell-based, human; conditions: RPMI8226, 6 days
Description: as §1, §2

KMS-12BM cells = experiment: MM cell growth, CellTiter-Glo, 6 days; type: cell-based, human
Description: as §1, §2

KMS-28BM cells = experiment: MM cell growth, CellTiter-Glo, 6 days; type: cell-based, human
Description: as §1, §2

MM.1R cells = experiment: MM cell growth, CellTiter-Glo, 6 days; type: cell-based, human
Description: as §1, §2

KMS-26 cells = experiment: MM cell growth, CellTiter-Glo, 6 days; type: cell-based, human; conditions: KMS-26, 6 days
Description: as §1, §2

KMS-27 cells = experiment: MM cell growth, CellTiter-Glo, 6 days; type: cell-based, human; conditions: KMS-27, 6 days
Description: as §1, §2

KMS-11 cells = experiment: MM cell growth, CellTiter-Glo, 6 days; type: cell-based, human; conditions: KMS-11, 6 days
Description: as §1, §2

KMS-12PE cells = experiment: MM cell growth, CellTiter-Glo, 6 days; type: cell-based, human
Description: as §1, §2

U266B1 cells = experiment: MM cell growth, CellTiter-Glo, 6 days; type: cell-based, human; conditions: U266B1, 6 days
Description: as §1, §2

KMS-20 cells = experiment: MM cell growth, CellTiter-Glo, 6 days; type: cell-based, human; conditions: KMS-20, 6 days
Description: as §1, §2

MM.1S cells = experiment: MM cell growth, CellTiter-Glo, 6 days; type: cell-based, human
Description: as §1, §2

NCI-H929 cells = experiment: Cell cycle analysis by flow cytometry (DNA content); type: cell-based, human; conditions: for G1 cell fraction / G2-M cell fraction / S cell fraction / sub-G1 cell fraction: NCI-H929, 1 μM, 72 h
Description: To measure DNA content for cell cycle distribution analysis, cells were incubated with 70% ethanol/PBS (v/v) overnight. Fixed cells were stained with propidium iodide and analyzed on a FACS LSRFortessa system (BD Biosciences, Franklin Lakes, NJ, USA).

[10] = test system: 24 protein lysine methyltransferases and DNA methyltransferases; experiment: Selectivity assay against other methyltransferases; type: biochemical; conditions: for inhibition of other methyltransferases: tested at 1 and 10 μM
Description: The selectivity assay was performed as previously described [31]. The effect of test compounds on the methyltransferase activities of Euchromatic histone-lysine N-methyltransferase 2 (G9a), G9a-like protein (GLP), Suppressor of variegation 3-9 homolog (SUV39H)1, SUV39H2, SUV420H1, SUV420H2, SET domain (SETD)2, SETD8, SETD bifurcated 1 (SETDB1), SETD7, Mixed-lineage leukemia (MLL)1 trimeric complex, MLL3 pentameric complex, Enhancer of zeste homolog (EZH)2 trimeric complex, PRMT1, PRMT3, PRMT4, PRMT5/Methylosome protein (MEP)50 complex, PRMT6, PRMT7, PRMT8, PRMT9, PR domain zinc finger protein (PRDM)9, SET and MYND domain-containing (SMYD)2, SMYD3, and DNA methyltransferase (DNMT)1 was assessed by monitoring the incorporation of a tritium-labeled methyl group into substrates with the scintillation proximity assay [32]. Briefly, a 10-μl reaction containing ^3H-SAM and substrate at concentrations close to the apparent Km values for each enzyme was prepared. Two concentrations (1 and 10 μM) of compound were tested. The reactions were quenched with 10 μl of 7.5 M guanidine hydrochloride; 180 μl of 20 mM Tris buffer (pH 8.0) were added, and the mixture was transferred to a 96-well FlashPlate followed by incubation for 1 h. The counts per minute (CPM) was measured on a TopCount plate reader; the CPM in the absence of compound or enzyme was defined as 100% activity and background (0%), respectively, for each dataset.

[11] = test system: acute myeloid leukemia, colon cancer, or lung cancer cell lines; experiment: Proliferation of non-MM cancer cell lines, 6 days; type: cell-based, human
Description: as §2
6 days. Relative ATP concentration was calculated based on chemiluminescence relative to the 0 nM value (control). Data are presented as
mean ± standard deviation (n = 3).
(§3) (1 picture or pasted object on this page, not shown here)

K562 cells = experiment: K562 cell viability, SYTOX Blue flow cytometry; type: cell-based; conditions: 3 μM TP-064, 5 μM SGC0946, 6 days; preliminary experiments
Description: as §2
growth. […] The inhibitors were topped up after
3 days. After 6 days, cells were stained with SYTOX Blue dead cell stain and the number of viable cells was determined by flow cytometry.
Data are presented as mean ± SD (n = 5). The predicted additive effect was calculated as Fa + Fb × (1 − Fa), where Fa and Fb are the
as §3

PRMT1 = molecular target: T8, PRMT1 (Homo sapiens, UniProt Q99873); experiment: PRMT1 methyltransferase scintillation proximity assay; type: biochemical
T8 construct: 30–371; made in house
T8 sequence (Q99873 30-371): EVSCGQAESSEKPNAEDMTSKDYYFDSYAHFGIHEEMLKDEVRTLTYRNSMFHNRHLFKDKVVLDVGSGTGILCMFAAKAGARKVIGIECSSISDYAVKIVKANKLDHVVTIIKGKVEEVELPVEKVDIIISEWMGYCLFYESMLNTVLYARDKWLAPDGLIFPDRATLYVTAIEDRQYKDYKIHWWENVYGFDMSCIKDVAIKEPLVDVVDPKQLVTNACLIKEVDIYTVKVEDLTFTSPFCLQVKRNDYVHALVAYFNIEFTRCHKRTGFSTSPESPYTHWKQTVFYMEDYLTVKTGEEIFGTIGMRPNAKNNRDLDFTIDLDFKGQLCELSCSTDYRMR
Description: as §4

PRMT4 [12] = molecular target: T2, PRMT4; experiment: PRMT4 methyltransferase scintillation proximity assay; type: biochemical; design: 1–608; made in house
Description: as §4

T1 sequence (Q9NVM4 whole entry): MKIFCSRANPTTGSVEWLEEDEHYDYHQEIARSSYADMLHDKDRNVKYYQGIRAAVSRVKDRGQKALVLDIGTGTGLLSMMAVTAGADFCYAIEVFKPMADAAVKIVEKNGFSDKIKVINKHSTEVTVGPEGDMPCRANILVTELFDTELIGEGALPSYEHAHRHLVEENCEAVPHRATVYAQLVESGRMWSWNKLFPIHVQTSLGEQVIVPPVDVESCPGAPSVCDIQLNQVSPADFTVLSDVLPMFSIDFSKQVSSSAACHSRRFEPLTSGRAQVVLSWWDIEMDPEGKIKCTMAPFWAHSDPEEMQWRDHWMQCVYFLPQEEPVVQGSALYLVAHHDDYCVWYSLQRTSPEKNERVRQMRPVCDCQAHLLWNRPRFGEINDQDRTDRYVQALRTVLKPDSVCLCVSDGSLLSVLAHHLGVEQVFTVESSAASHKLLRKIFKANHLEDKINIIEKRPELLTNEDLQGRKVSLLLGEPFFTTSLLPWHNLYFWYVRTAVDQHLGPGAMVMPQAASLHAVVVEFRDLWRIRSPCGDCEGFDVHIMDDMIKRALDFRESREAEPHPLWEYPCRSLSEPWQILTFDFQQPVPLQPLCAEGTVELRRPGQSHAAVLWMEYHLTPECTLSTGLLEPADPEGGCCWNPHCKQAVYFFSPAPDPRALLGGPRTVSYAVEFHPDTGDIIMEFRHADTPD

Question: With `CNCCN1CCC(c2cc(CN(C)C(=O)c3cccc(Oc4ccccc4)c3)ccn2)CC1` [TP-064, N-methyl-N-((2-(1-(2-(methylamino)ethyl)piperidin-4-yl)pyridin-4-yl)methyl)-3-phenoxybenzamide] as the compound, how does the IC50 (PRMT7) read?
Answer: Its IC50 is over 10 µM.

Question: What about the IC50 ([1]; Homo sapiens, 72 h) of the same compound?
Answer: The IC50 was 43 ± 10 nM.

Question: And the “increase of aggregation temperature (Tagg), DSLS” value (PRMT4 [2])?
Answer: Its value is “about 6 °C”.

Question: What about the IC50 ([3]; Homo sapiens, 72 h, KMS-27, 3 days, read-out: methyl / total BAF155 IC50) of the same compound?
Answer: Its IC50 is 400 nM.

Question: And the IC50 (PRMT8)?
Answer: The IC50 was 8.1 ± 0.6 µM.

Question: And the IC50 ([4]; Homo sapiens, 72 h)?
Answer: The IC50 was 340 ± 30 nM.

Question: And the IC50 (PRMT9)?
Answer: The IC50 was over 10 µM.

Question: What about the IC50 (PRMT6) of the same compound?
Answer: The IC50 was 1300 ± 400 nM.

Question: What about the “growth inhibition in cancer cell panel” value [5] of the same compound?
Answer: Its value is “inhibited the growth of a subset of MM cell lines”.

Question: What about the IC50 ([6]; Homo sapiens, 72 h, U266B1, 3 days, read-out: methyl / total BAF155 IC50) of the same compound?
Answer: The IC50 was 486 nM.

Question: And the IC50 (PRMT3)?
Answer: The IC50 was over 10 µM.

Question: What about the IC50 ([7]; Homo sapiens, 72 h, NCI-H929, 3 days, read-out: methyl / total BAF155 IC50) of the same compound?
Answer: The IC50 was 716 nM.

Question: And the IC50 [8]?
Answer: The IC50 was over 10 µM.

Question: What about the mode of inhibition (PRMT4 [9]) of the same compound?
Answer: Its mode of inhibition is “non-competitive”.

Question: What about the IC50 (RPMI8226 cells; Homo sapiens, RPMI-8226, 144 h) of the same compound?
Answer: The IC50 was 886 nM.

Question: What about the “Growth at 3 μM (%)” value (RPMI8226 cells) of the same compound?
Answer: Its value is -58.3%.

Question: And the “Growth at 3 μM (%)” value (KMS-12BM cells)?
Answer: The value was -8.2%.

Question: What about the “Growth at 3 μM (%)” value (KMS-28BM cells) of the same compound?
Answer: Its value is -24.1%.

Question: What about the “Growth at 3 μM (%)” value (MM.1R cells) of the same compound?
Answer: Its value is -37.8%.

Question: And the “Growth at 3 μM (%)” value (KMS-26 cells)?
Answer: Its value is -19.5%.

Question: What about the “Growth at 3 μM (%)” value (KMS-27 cells) of the same compound?
Answer: The value was -17.2%.

Question: What about the “Growth at 3 μM (%)” value (KMS-11 cells) of the same compound?
Answer: Its value is -17.2%.

Question: And the “Growth at 3 μM (%)” value (KMS-12PE cells)?
Answer: The value was -4.4%.

Question: And the “Growth at 3 μM (%)” value (U266B1 cells)?
Answer: Its value is -24.4%.

Question: What about the “Growth at 3 μM (%)” value (KMS-20 cells) of the same compound?
Answer: The value was -22.5%.

Question: And the “Growth at 3 μM (%)” value (MM.1S cells)?
Answer: The value was -31.0%.

Question: And the G1 cell fraction (NCI-H929 cells)?
Answer: Its G1 cell fraction is 63.5%.

Question: What about the G2-M cell fraction (NCI-H929 cells) of the same compound?
Answer: Its G2-M cell fraction is 20.2%.

Question: And the S cell fraction (NCI-H929 cells)?
Answer: Its S cell fraction is 7.89%.

Question: What about the sub-G1 cell fraction (NCI-H929 cells) of the same compound?
Answer: The sub-G1 cell fraction was 5.73%.

Question: And the IC50 [10]?
Answer: Its IC50 is over 10 µM.

Question: What about the “inhibition of other methyltransferases” value [10] of the same compound?
Answer: Its value is “did not inhibit”.

Question: And the anti-proliferative activity [11]?
Answer: Its anti-proliferative activity is “did not exhibit; also recorded: no effect”.

Question: What about the “cytotoxic response of K562 cells” value (K562 cells) of the same compound?
Answer: The value was “weak response”.

Question: Which results are given for `COCCN1CCC(c2cc(CN(C)C(=O)c3cccc(Oc4ccccc4)c3)ccn2)CC1` [TP-064N, N-((2-(1-(2-methoxyethyl)piperidin-4-yl)pyridin-4-yl)methyl)-N-methyl-3-phenoxybenzamide]?
Answer: IC50 (PRMT7): > 10 µM; inhibition of MED12 dimethylation ([1]; up to 10 μM): did not inhibit; effect on dimethyl-BAF155 level ([3]; KMS-27, 72 h): no effect; IC50 (PRMT8): > 10 µM; inhibition of BAF155 dimethylation ([4]; up to 10 μM): did not inhibit; IC50 (PRMT9): > 10 µM; IC50 (PRMT1): > 10 µM; IC50 (PRMT6): > 10000 nM; effect on dimethyl-BAF155 level ([6]; U266B1, 72 h): no effect; IC50 (PRMT4 [12]): 2500 ± 600 nM; IC50 (PRMT3): > 10 µM; effect on dimethyl-BAF155 level ([7]; NCI-H929, 72 h): no effect; IC50 [8]: > 10 µM; effect on cell cycle (NCI-H929 cells; NCI-H929): no/little effect; G1 cell fraction (NCI-H929 cells): 53.2%; G2-M cell fraction (NCI-H929 cells): 24.1%; S cell fraction (NCI-H929 cells): 13.2%; sub-G1 cell fraction (NCI-H929 cells): 5.14%; IC50 [10]: > 10 µM; inhibition of other methyltransferases [10]: completely inactive
